Assay type in all cases: physicochemical
Data set [1] can be described thus: stability of 18F-labeled model bioconjugates, physiological conditions. As to conditions: buffer, pH 7.4. As to the method:
To a solution of 90 μL aqueous K2CO3 buffer (pH 7.4) were added 10 μL of the respective ^18F-labeled (SiFA)SeFe-bioconjugate. The solution was kept at 37 °C and for each time point (0, 30, 60, 90, 120 min) 10 μL were analyzed via Radio-TLC. The half-life was calculated from the ratio between free fluorine-18 and labeled peptide.

Data set [2] in a line: stability of 18F-labeled model bioconjugates, reverse isotopic exchange. As to conditions: buffer, pH 6.5. As for the experimental part:
To 10 μL of the respective ^18F-labeled (SiFA)SeFe-bioconjugate, a solution of 10 μL 10 mM NaF (pH = 6.5) and 80 μL H2O was added. The solution was kept at RT and for each time point (0, 30, 60, 90, 120 min) 10 μL was analyzed via Radio-TLC. The half-life was calculated from the ratio between free fluorine-18 and labeled peptide.

Data set [3] can be described thus: stability of 18F-labeled model bioconjugates, lutetium labeling conditions. As to conditions: buffer, pH 5.5. As for the experimental part:
To a solution of 10 μL aqueous sodium acetate buffer (pH 5.5) and 80 μL 0.04 M HCl were added 10 μL of the respective ^18F-labeled (SiFA)SeFe-bioconjugate. The solution was kept at 90 °C and for each time point (0, 30, 60, 90, 120 min) 10 μL were analyzed via Radio-TLC. The half-life was calculated from the ratio between free fluorine-18 and labeled peptide.

Setting [4] is: physiological conditions, 18F-labeled, Radio-TLC, read-out: Half-life, pH 7.4, 37 °C.
Where [5] appears, read: reverse isotopic exchange, 18F-labeled, Radio-TLC, read-out: Half-life, pH 6.5, 1 mM aq. NaF, RT.
Setting [6] is: lutetium labeling conditions, 18F-labeled, Radio-TLC, read-out: Half-life, pH 5.5, 90 °C (converted).

The values that follow come from publication PMC11345769, “(SiFA)SeFe: A Hydrophilic Silicon-Based Fluoride Acceptor Enabling Versatile Peptidic Radiohybrid Tracers” (Journal of medicinal chemistry, 2024).

For `CC(C)(C)[Si](F)(c1cc(CNC(=O)[C@@H](N)CCCCN)cc(C(=O)NCC(=O)N[C@@H](Cc2ccc(O)cc2)C(=O)O)c1)C(C)(C)C` [2X3, (3-(di-tert-butylfluorosilyl)-5-(((S)-2,6-diaminohexanamido)-methyl)benzoyl)glycyl-L-tyrosine], the half-life was 21 ± 6 min in data set [1] (setting [4]), 20 ± 2.9 min in data set [2] (setting [5]) and 48 ± 13 h in data set [3] (setting [6]).
Consider `CC(C)(C)[Si](F)(c1cc(CN)cc(C(=O)NCC(=O)N[C@@H](CCCCN)C(=O)O)c1)C(C)(C)C` [1X1, (3-(aminomethyl)-5-(di-tert-butylfluorosilyl)benzoyl)glycyl-L-lysine], for which the half-life is 27 ± 2.1 min in data set [1], 10 ± 1.1 min in data set [2] and 38 ± 0.9 h in data set [3].
Consider `CC(C)(C)[Si](F)(c1cc(CNC(=O)[C@@H](N)CCC(=O)O)cc(C(=O)NCC(=O)N[C@@H](CC(=O)O)C(=O)O)c1)C(C)(C)C` [3X2, (3-(((S)-2-amino-4-carboxybutanamido)methyl)-5-(di-tert-butylfluorosilyl)benzoyl)glycyl-L-aspartic acid], for which the figures for the half-life in data set [1] (setting [4]), in data set [2] (setting [5]) and in data set [3] (setting [6]) were 597 ± 43 min, 90 ± 3.6 min and 59 ± 5.2 h, respectively.
For `CC(C)(C)[Si](F)(c1cc(CNC(=O)[C@@H](N)CCCCN)cc(C(=O)NCC(=O)N[C@@H](CCCCN)C(=O)O)c1)C(C)(C)C` [2X1, (3-(di-tert-butylfluorosilyl)-5-(((S)-2,6-diaminohexanamido)-methyl)benzoyl)glycyl-L-lysine], the half-life in data set [1] (setting [4]) is 18 ± 2.1 min; in data set [2] (setting [5]) it was 14 ± 0.8 min; in data set [3] (setting [6]), 25 ± 5.5 h.
`CC(C)(C)[Si](F)(c1cc(CN)cc(C(=O)NCC(=O)N[C@@H](Cc2ccc(O)cc2)C(=O)O)c1)C(C)(C)C` [1X3, (3-(aminomethyl)-5-(di-tert-butylfluorosilyl)benzoyl)glycyl-L-tyrosine]: the half-life in data set [1] was 14 ± 3 min; in data set [2], 27 ± 2.2 min; in data set [3], 43 ± 2.8 h.
In the case of `CC(C)(C)[Si](F)(c1cc(CNC(=O)[C@@H](N)CCC(=O)O)cc(C(=O)NCC(=O)N[C@@H](CCCCN)C(=O)O)c1)C(C)(C)C` [3X1, (3-(((S)-2-amino-4-carboxybutanamido)methyl)-5-(di-tert-butylfluorosilyl)benzoyl)glycyl-L-lysine], the results for the half-life in data set [1] (setting [4]), in data set [2] (setting [5]) and in data set [3] (setting [6]) were 57 ± 1.3 min, 34 ± 2.1 min and 40 ± 0.6 h, respectively.
Consider `CC(C)(C)[Si](F)(c1cc(CNC(=O)[C@@H](N)CCCCN)cc(C(=O)NCC(=O)N[C@@H](CC(=O)O)C(=O)O)c1)C(C)(C)C` [2X2, (3-(di-tert-butylfluorosilyl)-5-(((S)-2,6-diaminohexanamido)-methyl)benzoyl)glycyl-L-aspartic acid], for which the half-life in data set [1] (setting [4]) is 43 ± 1.3 min; in data set [2] (setting [5]) it was 29 ± 0.8 min; in data set [3] (setting [6]) it was 49 ± 7.1 h.
For the compound `CC(C)(C)[Si](F)(c1cc(CN)cc(C(=O)NCC(=O)N[C@@H](CC(=O)O)C(=O)O)c1)C(C)(C)C` [1X2, (3-(aminomethyl)-5-(di-tert-butylfluorosilyl)benzoyl)glycyl-L-as-partic acid], the half-life in data set [1] was 299 ± 12 min; in data set [2], 25 ± 6.1 min; in data set [3], 37 ± 11 h.
`CC(C)(C)[Si](F)(c1cc(CNC(=O)[C@@H](N)CCC(=O)O)cc(C(=O)NCC(=O)N[C@@H](Cc2ccc(O)cc2)C(=O)O)c1)C(C)(C)C` [3X3, (S)-4-amino-5-((3-((2-(((S)-1-carboxy-2-(4-hydroxyphenyl)-ethyl)amino)-2-oxoethyl)carbamoyl)-5-(di-tert-butylfluorosilyl)-benzyl)amino)-5-oxopentanoic acid]: the half-life in data set [1] (setting [4]) was 29 ± 0.8 min; in data set [2] (setting [5]), 57 ± 1.6 min; in data set [3] (setting [6]), 42 ± 7.8 h.
